# Test results from publication PMC3509269 (The Analyst, 2012).
# Tested on: Calf thymus DNA
# Assay type: biochemical
# Details: 0.2 mM, negative control, under the assay conditions (Fig. S8)
smiles,measurement,value
C1CCOC1 [THF],SWV peak increases (DNA damage signal),did not show SWV peak increases
